The subject of assay [1] is human keratinocytes. Put plainly: Inhibition of proliferation of cultured human keratinocytes (cell count by Coulter Counter). Type of assay: cell-based. Conditions: Keratinocyte, 168 h, seven days, triplicate, read-out: Percent Inhibition on Keratinocyte Proliferation; for inhibition at 1 µM: 10^-6 M; for inhibition at 0.1 µM: 10^-7 M; for inhibition at 0.01 µM: 10^-8 M; for inhibition at 0.0001 µM: 10^-10 M. The method, then: Human neonatal foreskins were collected by circumcision and placed into tubes containing DMEM media. Upon arrival at the laboratory the foreskins were mechanically trimmed of excess dermis and treated with a solution of trypsin/EDTA (0.05%/0.02%) at 4° C. overnight. The epidermis was stripped from the dermis, agitated in buffered saline to remove basal keratinocytes and to separate the stratum corneum which was subsequently removed. The separated cells were centrifuged, resuspended in media, counted and the keratinocytes were plated onto a plain plastic culture dish.
The keratinocytes were plated at a density of about 10^5 cells/cm^2in 35 cm^2 dishes. The cells were grown in keratinocyte growth media (KGM®-modified MCDB 153 containing antibiotics by Clonetics of Boulder, Colo.) according to protocols originally developed by Boyce, S. T. and Ham, R. G., J. of Tissue Culture Meth. 9:83-93 (1985). The cells were grown for 5-10 days and changed every 2-3 days with keratinocyte growth media containing 1.5 mM CaCl2 (hereinafter KGM®/1.5 mM CaCl2) until cells reached a 75% confluency by visual observation. All the cultures were incubated in a humidified atmosphere of 5% CO2 at 37° C.
To establish keratinocyte cell cultures as antiproliferative assays, cells prepared as described in the foregoing were washed with PBS and removed from the culture surface with a solution of trypsin/EDTA (0.25%/0.03%). The removed cells were then centrifuged, resuspended in the KGM®/1.5 mM CaCl2 and counted. The cells were then distributed to 6 well plates at 100,000 cells per well as described in the foregoing. […] After 24-48 hours KGM®/1.5 mM CaCl2 which contained test compounds was added to the cells. The cultures maintained for seven days. The media was changed every 2-3 days.
Solutions of the test compounds were prepared as follows: 1 milligram quantities were received in amber glass vials, and stored at -20° C. Sufficient 100% ethanol was added directly to vials to obtain a millimolar solution that was subsequently aliquoted into small amber vials, overlayed with argon gas and stored at -20° C. Each stock solution was thawed once, used and discarded. Aliquots from the stock solutions were diluted directly into medium and then serially diluted from micromolar to 10^-12 M concentrations. Dilutions from 10^-7 M to 10^-12 M had ethanol added for a final concentration of 0.1%. Stock solutions were used within one month. Control cultures were treated with 0.1% ethanol.
For each experiment every culture well received the same number of cells from the same culture source. At the termination of the experiment the number of cells per was determined by the following procedure. Wells were washed twice with PBS and then incubated for approximately 10-20 minutes at 37° C. with a trypsin/EDTA solution (0.25%/03%). PBS plus 0.1% soybean trypsin inhibitor was added and the cells were suspended. An aliquot of the cells was placed into isotonic buffered saline and counted on an electronic particle counter (e.g. Coulter Counter® device by Coulter Electronics of Hialeah, Fla.).
Quantification of proliferation was done by enumerating the number of keratinocyte cells in each well using the Coulter Counter®. Results shown in Table 1 below show the percent reduction of keratinocyte cell number calculated for each of 4 concentrations of test compounds tested according to the formula: [formula]
For statistical analysis, the mean was calculated for all wells in each treatment group. Standard error was determined by nonbiased analysis using a value for the number of wells in each group, preferably N=3.
Each compound was tested in triplicate. The control (ETOH), as noted above, was 0.1% ethanol.

The test system of assay [2] is Cholesterol Biosynthesis in HepG2 Cells. Put plainly: Inhibition of cholesterol biosynthesis in HepG2 cells (3H2O incorporated into cholesterol). Type of assay: cell-based. Conditions: for activity as cholesterol biosynthesis inhibitors: HepG2 cells, in words; for IC50: Homo sapiens. The method, then: HepG2 cells are maintained in 175 cm^2 T flasks in Darlington Medium supplemented with 10% fetal bovine serum (FBS). Darlington Medium consists of 3 parts Minimal Essential Medium, 1 part Waymouth's MAB87/3 medium and 3×10^-8 M sodium selenite. This medium is supplemented with 100 U/ml penicillin, 100 ug/ml streptomycin and 2.5 ug/ml Fungizone. In order to establish optimal conditions for the whole cell cholesterol biosynthesis assay, preliminary experiments were performed. 0.25, 0.5, 0.75 or 1×10^6 cells were seeded into 6 well cluster plates in 2 ml of fully supplemented Darlington Medium. The serum supplemented medium was aspirated after 72 hours and replaced with serum free Darlington Medium with antibiotics. After 24, 48 or 72 hours serum free, the cells received either 0.5 or 1 mCi ^3 H2 O/ml medium. This medium was aspirated after 24 hours and the cells were washed twice with phosphate buffered saline. The cells were frozen overnight at -20° C. after which they were harvested from the wells with 1 ml of trypsin-EDTA. Extracted lipids were separated on an HPLC system; cholesterol peaks were collected and counted in a scintillation counter. Results are expressed as the dpm ^3 H2 O incorporated into cholesterol.
In the screening assay the cells received compounds at various concentrations concommitantly with ^3 H2 O. When ethanol was the vehicle, the final ethanol concentration was 0.5%, and control wells with that concentration of ethanol were used in each experiment. Results are expressed as the percent dpm ^3 H2 O incorporated into cholesterol in treated vs control wells. IC50 values are calculated using a linear regression analysis.

Molecules are shown by their SMILES.

For orientation: IC50 means the concentration that gives 50% inhibition. Consider `C[C@H]1C=C2C=C[C@H](C)[C@H](CC[C@@H]3C[C@@H](O)CC(=O)O3)[C@H]2[C@@H](OC(=O)C(C)(C)Oc2ccc(Cl)cc2)C1` [A, 2-(4-chlorophenoxy)-2-methylpropionic acid [1S-[1α,3α,7β,8β(2R*, 4R*),8aβ]]-1,2,3,7,8,8a-hexahydro-3,7-dimethyl-8-[2-[tetrahydro-4-hydroxy-6-oxo-2H-pyran-2-yl]ethyl]-1-naphthalenyl ester], for which, in assay [1], the inhibition at 1 µM is 49.7%, the inhibition at 0.1 µM came out at 15.2%, the inhibition at 0.01 µM was found to be 6.28% and the inhibition at 0.0001 µM turned out to be 20.9%. In assay [2], the “activity as cholesterol biosynthesis inhibitors” value is “show activity as cholesterol biosynthesis inhibitors”. In addition, the half-inhibitory concentration (IC50) in assay [2] (HepG2, Test I) was found to be 30 nM. In assay [2] (HepG2, Test II), the half-maximal inhibitory concentration (IC50) stood at 500 nM. Besides, the midpoint of inhibition in assay [2] (HepG2, Test III), the IC50, lay at 101 nM.
For the compound `C[C@H]1C=C2C=C[C@H](C)[C@H](CC[C@@H]3C[C@@H](O)CC(=O)O3)[C@H]2[C@@H](OC(=O)C(C)(C)C(C)(F)F)C1` [Compound B, 3,3-difluoro-2,2-dimethylbutanoic acid, [1S-[1α,3α,7β,8β(2R*,4R*)8aβ]]-8-[2-[tetrahydro-4-hydroxy-6-oxo-2H-pyran-2-yl]ethyl]-1,2,3,7,8,8a-hexahydro-3,7-dimethyl-1-naphthalenyl ester], in assay [1], the inhibition at 1 µM was 95.8%, the inhibition at 0.1 µM came to 31.2%, the inhibition at 0.01 µM worked out at 14.6% and the inhibition at 0.0001 µM amounted to 18%. In addition, the “activity as cholesterol biosynthesis inhibitors” value in assay [2] is given as “show activity as cholesterol biosynthesis inhibitors”. The same compound showed an IC50 in assay [2] (HepG2, Test IV) of 5 nM.
Consider `CC[C@H](C)C(=O)O[C@H]1C[C@@H](C)C=C2C=C[C@H](C)[C@H](CC[C@@H]3C[C@@H](O)CC(=O)O3)[C@H]21` [mevinolin, reference compound], for which the half-maximal inhibitory concentration (IC50) in assay [2] (HepG2, Test I) came out at 20 nM; in assay [2] (HepG2, Test II), 100 nM; in assay [2] (HepG2, Test III), 76 nM; in assay [2] (HepG2, Test IV), 8 nM.

For the origin of these results see patent US5200549A, “Antipsoriatic agents” (Hoffman-La Roche Inc., priority 1991, dated 1993).
